The source of these data is patent publication US8758775B2 (priority 2005, dated 2014).

Data set [1] concerns heartburn in patients suffering from endoscopic negative GORD. To be noted: in vivo.
In data set [2] the test system is intestinal system's proteolytic capacity and disacaridase potential. To be noted: cited from earlier work.
The test system of data set [3] is E. coli-sta enterotoxin induced diarrhoea. Set-up: species or system NMRI mice. To be noted: mouse, in vivo.
For data set [4] the test system is unchanged. Set-up: species or system NMRI mice. To be noted: mouse, in vivo. This is another data set of the same source.

With clinoptilolite, in data set [1], the “Reported side-effects: Bloatedness” value is 3/10, the “Reported side-effects: Constipation” value is reported as 2/10, the “Reported side-effects: Nausea” value is recorded as 1/10 and the “Reported side-effects: No side-effects” value is 4/10. Further, the “Reported side-effects: Sleeplessness” value in data set [1] is given as 1/10. For the same compound, the “intestinal system's proteolytic capacity and disacaridase potential” value in data set [2] is “not modified”.

For the compound `CN(C)C(=O)C(CCN1CCC(O)(c2ccc(Cl)cc2)CC1)(c1ccccc1)c1ccccc1` [loperamide], in data set [3], the “mean number of stools passed” value is listed as “reduction” and the net stool weight entry is listed as “reduction”. In addition, in data set [4], the frequency of defecation entry is “significantly reduced (P<0.05)” and the “reduction in stool weight” value is on record as “significant (P<0.05)”.
